Eight compounds from US7456210B2, “Benzyloxy derivatives” (Hoffmann-La Roche Inc., priority 2004, dated 2008) can be followed below.

This experiment addresses T1, human MAO-B (Homo sapiens, UniProt P27338).
T1 construct: expressed in transfected cells; host or cells: EBNA cells (transient transfection); cell membranes used
T1 sequence (P27338 1-520): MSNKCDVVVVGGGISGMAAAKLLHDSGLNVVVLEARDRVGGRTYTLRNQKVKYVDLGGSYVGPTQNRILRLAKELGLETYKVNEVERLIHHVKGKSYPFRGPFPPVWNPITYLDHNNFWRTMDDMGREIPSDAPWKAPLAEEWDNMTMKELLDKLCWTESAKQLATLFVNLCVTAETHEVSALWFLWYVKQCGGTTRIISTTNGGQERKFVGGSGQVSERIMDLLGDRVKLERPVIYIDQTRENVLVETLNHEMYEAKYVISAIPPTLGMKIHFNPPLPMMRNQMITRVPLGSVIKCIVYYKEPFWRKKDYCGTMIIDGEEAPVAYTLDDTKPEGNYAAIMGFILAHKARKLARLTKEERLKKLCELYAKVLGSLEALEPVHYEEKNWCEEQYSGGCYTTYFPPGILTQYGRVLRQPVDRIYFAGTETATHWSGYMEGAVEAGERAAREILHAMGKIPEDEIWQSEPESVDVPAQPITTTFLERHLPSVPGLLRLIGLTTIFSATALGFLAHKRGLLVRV
Put plainly: MAO-B enzymatic activity, spectrophotometric Amplex Red assay on membranes of transfected EBNA cells. Type of experiment: biochemical. The settings on record: membranes of EBNA cells transfected with human MAO-B; substrate tyramine; 30 min preincubation at 37° C., pH 7.4. As for the experimental part:
The cDNA's encoding human MAO-A and MAO-B were transiently transfected into EBNA cells using the procedure described by Schlaeger and Christensen [Cytotechnology 15:1-13 (1998)]. After transfection, cells were homogenised by means of a Polytron homogenizer in 20 mM Tris HCl buffer, pH 8.0, containing 0.5 mM EGTA and 0.5 mM phenylmethanesulfonyl fluoride. Cell membranes were obtained by centrifugation at 45,000×g and, after two rinsing step with 20 mM Tris HCl buffer, pH 8.0, containing 0.5 mM EGTA, membranes were eventually re-suspended in the above buffer and aliquots stored at −80° C. until use.
MAO-A and MAO-B enzymatic activity was assayed in 96-well-plates using a spectro-photometric assay adapted from the method described by Zhou and Panchuk-Voloshina [Analytical Biochemistry 253:169-174 (1997)]. Briefly, membrane aliquots were incubated in 0.1 M potassium phosphate buffer, pH 7.4, for 30 min at 37° C. with or without various concentrations of the compounds. After this period, the enzymatic reaction was started by the addition of the MAO substrate tyramine together with 1 U/ml horse-radish peroxidase (Roche Biochemicals) and 80 μM N-acetyl-3,7,-dihydroxyphenoxazine (Amplex Red, Molecular Probes). The samples were further incubated for 30 min at 37° C. in a final volume of 200 μl and absorbance was then determined at a wavelength of 570 nm using a SpectraMax plate reader (Molecular Devices). Background (non-specific) absorbance was determined in the presence of 10 μM clorgyline for MAO-A or 10 μM L-deprenyl for MAO-B.
IC50 values were determined from inhibition curves obtained using nine inhibitor concentrations in duplicate, by fitting data to a four parameter logistic equation using a computer program.
`Cc1nc([C@@H]2CC(=O)N(c3ccc(OCc4cccc(F)c4)cc3)C2)cs1` [Example 8, (R)-1-[4-(3-Fluoro-benzyloxy)-phenyl]-4-(2-methyl-thiazol-4-yl)-pyrrolidin-2-one] showed a half-inhibitory concentration (IC50) of 0.387 µM.
With `O=C1C[C@@H](c2c[nH]cn2)CN1c1ccc(OCc2cccc(F)c2)cc1` [Example 9, (R)-1-[4-(3-Fluoro-benzyloxy)-phenyl]-4-(1H-imidazol-4-yl)-pyrrolidin-2-one], the IC50 stood at 0.187 µM.
Then `CC(=O)[C@@H]1CC(=O)N(c2ccc(OCc3cccc(F)c3)cc2)C1` [Example 11, (R)-4-Acetyl-1-[4-(3-fluoro-benzyloxy)-phenyl]-pyrrolidin-2-one], with 0.011 µM; and `NC(=O)c1nc([C@@H]2CC(=O)N(c3ccc(OCc4cccc(F)c4)cc3)C2)no1` [Example 6, 3-{(R)-1-[4-(3-Fluoro-benzyloxy)-phenyl]-5-oxo-pyrrolidin-3-yl}-[1,2,4]oxadiazole-5-carboxylic acid amide], with 0.429 µM; and `CON(C)C(=O)[C@@H]1CC(=O)N(c2ccc(OCc3cccc(F)c3)cc2)C1` [Example 10, (R)-1-[4-(3-Fluoro-benzyloxy)-phenyl]-5-oxo-pyrrolidine-3-carboxylic acid methoxy-methyl-amide], with 0.392 µM.
`CCOC(=O)c1nc([C@@H]2CC(=O)N(c3ccc(OCc4cccc(F)c4)cc3)C2)no1` [Example 5, 3-{(R)-1-[4-(3-Fluoro-benzyloxy)-phenyl]-5-oxo-pyrrolidin-3-yl}-[1,2,4]oxadiazole-5-carboxylic acid ethyl ester] came in with a half-inhibitory concentration (IC50) of 0.043 µM. This IC50 is about 9.1-fold lower than that of the compound before.
The result for `N=C(NO)[C@@H]1CC(=O)N(c2ccc(OCc3cccc(F)c3)cc2)C1` [Example 3, (R)-1-[4-(3-Fluoro-benzyloxy)-phenyl]-N-hydroxy-5-oxo-pyrrolidine-3-carboxamidine] reads 0.018 µM.
Then `Cc1nc([C@@H]2CC(=O)N(c3ccc(OCc4cccc(F)c4)cc3)C2)no1` [Example 4, (R)-1-[4-(3-Fluoro-benzyloxy)-phenyl]-4-(5-methyl-[1,2,4]oxadiazol-3-yl)-pyrrolidin-2-one], with 0.016 µM.
